Test results reported in US20080146656A1, “Use of a steroid sulphatase inhibitor for inhibiting the synthesis of androstenedione and/or testosterone” (priority 2005, published 2008).

Columns and labels:
[1] = biological target: T1, steroid sulphatase (STS) (Homo sapiens, UniProt P08842); test: Phase I trial: STS activity in peripheral blood lymphocytes after oral STX64; type: in vivo, humans
T1 construct: endogenous in cells; host or cells: peripheral blood lymphocytes (PBLs) of patients dosed orally with STX64
T1 sequence (P08842 22-583): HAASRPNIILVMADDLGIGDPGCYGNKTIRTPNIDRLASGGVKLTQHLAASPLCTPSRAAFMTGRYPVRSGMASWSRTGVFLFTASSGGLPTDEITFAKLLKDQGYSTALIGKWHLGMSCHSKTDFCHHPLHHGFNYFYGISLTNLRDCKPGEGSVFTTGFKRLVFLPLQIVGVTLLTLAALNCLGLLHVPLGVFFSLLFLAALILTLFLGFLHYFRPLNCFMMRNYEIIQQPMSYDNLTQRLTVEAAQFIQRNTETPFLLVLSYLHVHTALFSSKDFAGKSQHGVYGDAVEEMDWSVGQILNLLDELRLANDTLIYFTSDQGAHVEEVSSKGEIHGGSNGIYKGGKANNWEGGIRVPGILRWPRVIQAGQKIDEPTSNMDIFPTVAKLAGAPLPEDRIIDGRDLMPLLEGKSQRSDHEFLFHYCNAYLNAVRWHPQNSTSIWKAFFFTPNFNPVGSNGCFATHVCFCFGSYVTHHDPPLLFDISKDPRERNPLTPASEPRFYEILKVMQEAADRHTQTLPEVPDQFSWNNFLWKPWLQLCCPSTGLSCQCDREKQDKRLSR
Description: (§1) In the Phase I trial STX64 (5 mg or 20 mg) was administered orally as a single test dose on day 1 of the trial. Twenty four hours (24 h) later a blood sample was taken to evaluate STS activity in peripheral blood lymphocytes (PBLs) and also to measure steroid hormone concentrations. On day 8 of the trial patients received daily dosing for 5 days with a further blood sample being collected at the end of this period on day 12 (D12).
STS activity was measured in PBLs isolated from 10 ml blood collected using a vacutainer. The enzyme in the cells was solubilized with phosphate-buffered saline/Triton X-100 and STS activity measured using a physiological (2-3 nM) substrate concentration of ^3H estrone sulphate [^3H-E1S] over a 20 h period.

[2] = tested on: serum androstenedione, testosterone, E1, E2, DHEAS and DHEA; test: Phase I trial: serum steroid hormone concentrations after oral STX64; type: in vivo, humans
Description: The assay for the determination of androstenedione, testosterone, E1 and E2 was the gas chromatographic tandem mass spectroscopic method of Wang et al., (2005). Recombinant cell ultra-sensitive bioassay for measurements of estrogens in postmenopausal women. J Clin Endocrinol Metab (In press).
as §1
Serum concentrations of the steroids listed below were measured: […]

[3] = biological target: T2, STS (Homo sapiens, UniProt P08842); test: Male volunteer study: STS activity after EMATE; type: in vivo, volunteer subject; conditions: 40 mg, FIG. 12
T2 construct: endogenous in cells; host or cells: volunteer subject
T2 sequence (P08842 22-583): T1 sequence (P08842 22-583)

[4] = tested on: plasma androstenedione; oestrone sulphate (E1S) to oestrone (E1) ratio; test: Male volunteer study: plasma steroids after EMATE; conditions: 40 mg

| Structure (SMILES) | inhibition at 5 mg ([1]; 5 mg dose, read-out: inhibition of steroid sulphatase (STS) activity, as measured in peripheral blood lymphocytes) [%] | inhibition at 20 mg ([1]; 20 mg dose, read-out: inhibition of steroid sulphatase (STS) activity, as measured in peripheral blood lymphocytes) [%] | STS activity, as measured in PBLs ([1]; 24 h after the test dose and on day 12 of the trial, oral 5 mg or 20 mg, FIG. 2) | serum androstenedione concentrations ([2]; 5 mg and 20 mg doses, FIG. 11 (ii)) | serum testosterone concentrations ([2]; 5 mg and 20 mg doses, FIG. 11 (iii)) | serum androstenedione concentration ([2]; 24 h and day 12 time points after administration, FIG. 3) | serum testosterone concentration ([2]; 24 h and day 12 time points after administration, FIG. 4) | serum E1 concentration ([2]; Phase I trial, FIG. 5) | serum E2 concentration ([2]; Phase I trial, FIG. 6) | ratios of DHEAS: DHEA ([2]; both the 5 mg and 20 mg doses, FIG. 11 (i)) | serum Adione concentration ([2]; individual patient, 24 h after initial single dose, FIGS. 7 and 9) | Adione concentrations ([2]; individual patient, following daily dosing for 5 days (D5+8 h), FIGS. 7 and 9) | STS activity [3] | persistence of the reduction in plasma androstenedione concentration [4] | reduction in the plasma androstenedione concentration [4] | oestrone sulphate (E1S) to oestrone (E1) ratio ([4]; FIG. 12) |
| --- | --- | --- | --- | --- | --- | --- | --- | --- | --- | --- | --- | --- | --- | --- | --- | --- |
| NS(=O)(=O)Oc1ccc2c3c(c(=O)oc2c1)CCCCC3 [STX64] | > 90 | > 90 | almost completely inhibited | marked decreases | marked decreases | decreased significantly | decreased significantly | significant decreases | significant decreases | marked increase | marked decrease | further decrease |  |  |  |  |
| C[C@]12CC[C@@H]3c4ccc(OS(N)(=O)=O)cc4CC[C@H]3[C@@H]1CCC2=O [EMATE, oestrone-3-O-sulphamate] |  |  |  |  |  |  |  |  |  |  |  |  | almost completely inhibited | up to 15 days | 20-30% | marked increase |
